{
  "source": "patent US10738041B2",
  "about": "“Ferroportin inhibitors” (Vifor (International) AG, priority 2015, dated 2020)",
  "key": {"[1]": {"biological_target": "T1, ferroportin (Fpn) (Mus musculus, UniProt Q9JHI9)", "T1 construct": "host or cells: J774 mouse macrophage cell line, Fe(III)-NTA induced", "T1 sequence (Q9JHI9 1-570)": "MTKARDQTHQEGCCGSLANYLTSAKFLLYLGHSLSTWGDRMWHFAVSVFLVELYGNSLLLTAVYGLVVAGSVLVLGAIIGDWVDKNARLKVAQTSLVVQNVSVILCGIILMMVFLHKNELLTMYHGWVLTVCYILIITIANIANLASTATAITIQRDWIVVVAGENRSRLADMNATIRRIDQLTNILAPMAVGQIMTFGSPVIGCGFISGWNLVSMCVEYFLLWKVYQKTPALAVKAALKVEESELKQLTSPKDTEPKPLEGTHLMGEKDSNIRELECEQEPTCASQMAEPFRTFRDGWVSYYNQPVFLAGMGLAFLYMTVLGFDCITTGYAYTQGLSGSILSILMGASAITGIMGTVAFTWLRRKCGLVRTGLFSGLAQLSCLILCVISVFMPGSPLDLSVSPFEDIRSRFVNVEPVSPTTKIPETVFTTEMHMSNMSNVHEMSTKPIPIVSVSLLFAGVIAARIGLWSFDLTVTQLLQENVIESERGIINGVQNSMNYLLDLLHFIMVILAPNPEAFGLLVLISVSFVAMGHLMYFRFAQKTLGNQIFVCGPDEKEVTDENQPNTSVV", "test": "Ferroportin Ubiquitination and Degradation (immunoprecipitation, Western blot)", "format": "cell-based", "parameters": "key: + comparable to hepcidin; − no effect; +/− intermediate effect", "conditions": "J774 cells; visual inspection of Western blots; concentration per compound ca. 10-fold J774 IC50", "description": "Exposure of cells expressing ferroportin (Fpn) to hepcidin is known to trigger ubiquitination aid subsequent internalization and degradation of Fpn (Qiao, 2012). The potential of Fpn inhibitors to induce Fpn ubiquitination and degradation was investigated with an immunoprecipitation assay using the J774 mouse macrophage cell line which expresses Fpn upon treatment with iron.\nCells were incubated with synthetic human hepcidin (Bachem, Cat. H-5926) or Fpn inhibitor compounds for 10 min or 120 min. Cells were washed and lysed witi ice-cold lysis buffer (Pierce, Life Technoligies, Cat. 87787) including 1× HALT protease inhibitor cocktail (Life technologies, Cat. 78429) and 10 mM iodoacetamide (Sigma, Cat. 16125) to stabilize ubiquitinated proteins. Immunoprecipitation was done using the Pierce Classic IP Kit (Life Technologies, Cat. 26146) following the manufacturer's protocol. Briefly, 2 mg protein in 1.25 ml IP lysis buffer was incubated by mixing for 1 h at 4° C. with control agarose beads to pre-clear the lysate and reduce nonspecific signal. Unbound lysate was then incubated overnight with 12 μg per reaction of the affinity purified anti-Fpn antibody F308 that was raised against a GST fusion protein of mouse Fpn amino acids 224308. Immune complexes were captured by pipetting 14 μl settled Pierce Protein A/G Plus Agarose beads (Life Technologies, Cat. 20423) per reaction and the slurry was incubated for 1.5 h at 4° C. with gentle end-over-end mixing. The beads were washed and immune complexes were eluted directly with 75 μl SDS NuPAGE LDS sample buffer (Life Technologies, Cat. NP0007) containing DTT (Life Technologies, Cat. NP0009). After immunoprecipitation samples were analyzed by Western blotting using a rabbit anti-mouse MTP1 antiserum (Alpha Diagnostic International, Cat. MTP11-A) and a mouse anti-mono- and polyubiquitinylated conjugates monoclonal antibody (Enzo Lifesciences, Cat. BML-PW8810) for detection of ferroportin and ubiquitin, respectively. Mouse monoclonal anti-rabbit IgG light chain (Abcam, Cat. ab99697) and anti-mouse IgG H&L (Abcam, Cat. ab6789) HRP conjugates were used as secondary antibodies.\nA selection of eleven Fpn inhibitors were tested in this assay and compared to hepcidin.\nJ774 cells were incubated overnight with Fe(III)-NTA to induce expression of Fpn. […] Mock treated cells were harvested after 120 min (Control)."}, "[2]": {"test_system": "Hbb th3/+ mice", "test": "Improvement of anemia, ineffective erythropoiesis and iron overload in a mouse model of β-thalassemia intermedia", "format": "in vivo", "conditions": "for Correction of anemia at day 20-48 (hemoglobin, difference to vehicle control) / Decrease in 58Fe spleen iron content / Decrease in blood reticulocyte counts / Decrease in leukocyte counts / Decrease in serum erythropoietin / Increase in blood erythrocyte counts / Increase in hematocrit / Prevention of liver 58Fe loading: 27 days (127) or 46 days (40); for Decrease in serum iron: Hbb th3/+ mice, % change to vehicle control", "description": "The efficacy of Fpn inhibitors was investigated using a mouse model of transfusion-independent β-thalassemia. Mice with heterozygous deletion of β1 and β2 globin genes (called Hbb th3/+ mice) develop transfusion-independent anemia, ineffective erythropoiesis, splenomegaly and secondary iron overload in spleen, liver and kidneys. […] Hbb th3/+ mice were dosed twice daily with either compound at 20 or 60 mg/kg or with methylcellulose (10 ml/kg, Sigma, Cat. 274429) as a vehicle. Between both doses mice had access to drinking water supplemented with 1 mM ^58Fe(II)-sulfate (Vifor Pharma, Batch No. ROR 3096) and 10 mM ascorbic acid (Sigma, Cat. 795437) for 6 h. […] Water without ^58Fe(II)-Sulfate and ascorbic acid was provided during the remaining 18 h. Dosing of Fpn inhibitors or vehicle followed by exposure to iron-containing water was repeated for 20 to 46 days in individual experiments.\nAdditional hematologic parameters were measured in terminal blood using automated blood cell analyzer.\nThe inefficient erythropoiesis of Hbb th3/+ mice causes excessive proliferation of erythroid precursors in spleen, leading to splenomegaly.\nElevated erythropoietin levels in Hbb th3/+ mice hduced overexpression of erythroferrone, an erythroid regulator hormone known to suppress hepcidin (Kautz L. et al, Nat. Genet., 2014). […] Erythroferrone is produced by erythrocyte precursors proliferating massively in spleens of Hbb th3/+ mice as a consequence of extramedullar erythropoiesis.\nIncreased iron demand due to inefficient erythropoiesis and chronically low hepcidin levels in patients with thalassemia causes organ iron loading and associated morbidities, such as hepatocellular carcinoma and heart failure (Rivella S. Haematologica, 2015). Hbb th3/+ mice absorb excessive amounts of iron as a consequence of inadequately low hepcidin levels relative to the high iron content in liver, spleen and kidney and increased ferroportin expression in duodenum (Gardenghi S., Blood, 2007).\nAdditionally, reactive oxygen species (ROS) were detected in bone marrow cells using a fluorescent indicator, CM-H2DCFDA (Thermo Fisher Scientific, Cat. C6827)."}},
  "data": [
    {"compound": "O=C(NCc1ncccc1F)c1coc(CCNCc2nc3ccccc3[nH]2)n1", "note": "[Example 126]", "values": [
      {"measurement": "Fpn Degradation (120 min.)", "setting": "[1]", "result": "+"},
      {"measurement": "Fpn Ubiquitination (10 min.)", "setting": "[1]", "result": "+/−"}
    ]},
    {"compound": "O=C(NCc1ncccc1F)c1coc(CCNCCc2nc3ccccc3[nH]2)n1", "note": "[Example 127]", "values": [
      {"measurement": "Decrease in RDW", "setting": "[2]; 20 mg/kg twice daily, 27 days (127)", "result": 19, "unit": "%"},
      {"measurement": "Correction of anemia at day 20-48 (hemoglobin, difference to vehicle control)", "setting": "[2]; 20 mg/kg twice daily", "result": 12, "unit": "g/L"},
      {"measurement": "Decrease in 58Fe spleen iron content", "setting": "[2]; 20 mg/kg twice daily", "result": 43, "unit": "%"},
      {"measurement": "Decrease in blood reticulocyte counts", "setting": "[2]; 20 mg/kg twice daily", "result": 16, "unit": "%"},
      {"measurement": "Decrease in leukocyte counts", "setting": "[2]; 20 mg/kg twice daily", "result": 46, "unit": "%"},
      {"measurement": "Decrease in serum erythropoietin", "setting": "[2]; 20 mg/kg twice daily", "result": 32, "unit": "%"},
      {"measurement": "Increase in blood erythrocyte counts", "setting": "[2]; 20 mg/kg twice daily", "result": 0, "unit": "%"},
      {"measurement": "Increase in hematocrit", "setting": "[2]; 20 mg/kg twice daily", "result": 3, "unit": "%"},
      {"measurement": "Prevention of liver 58Fe loading", "setting": "[2]; 20 mg/kg twice daily", "result": 39, "unit": "%"},
      {"measurement": "Decrease in serum iron", "setting": "[2]; 20 mg/kg", "result": 68, "unit": "%"},
      {"measurement": "Decrease in RDW", "setting": "[2]; 60 mg/kg twice daily, 27 days (127)", "result": 25, "unit": "%"},
      {"measurement": "Correction of anemia at day 20-48 (hemoglobin, difference to vehicle control)", "setting": "[2]; 60 mg/kg twice daily", "result": 20, "unit": "g/L"},
      {"measurement": "Decrease in 58Fe spleen iron content", "setting": "[2]; 60 mg/kg twice daily", "result": 68, "unit": "%"},
      {"measurement": "Decrease in blood reticulocyte counts", "setting": "[2]; 60 mg/kg twice daily", "result": 61, "unit": "%"},
      {"measurement": "Decrease in leukocyte counts", "setting": "[2]; 60 mg/kg twice daily", "result": 66, "unit": "%"},
      {"measurement": "Decrease in serum erythropoietin", "setting": "[2]; 60 mg/kg twice daily", "result": 33, "unit": "%"},
      {"measurement": "Increase in blood erythrocyte counts", "setting": "[2]; 60 mg/kg twice daily", "result": 36, "unit": "%"},
      {"measurement": "Increase in hematocrit", "setting": "[2]; 60 mg/kg twice daily", "result": 20, "unit": "%"},
      {"measurement": "Prevention of liver 58Fe loading", "setting": "[2]; 60 mg/kg twice daily", "result": 59, "unit": "%"},
      {"measurement": "Decrease in serum iron", "setting": "[2]; 60 mg/kg", "result": 81, "unit": "%"},
      {"measurement": "Decreased in ROS in bone marrow erythrocytes", "setting": "[2]; second value of the cell (60 mg/kg) twice daily, 27 days (127)", "result": "NA/75%"}
    ]},
    {"compound": "CC[C@H](C)[C@@H]1NC(=O)[C@@H](NC(=O)[C@@H](NC(=O)[C@@H]2CCCN2C(=O)[C@H](Cc2ccccc2)NC(=O)[C@H](Cc2c[nH]cn2)NC(=O)[C@@H](NC(=O)[C@@H](N)CC(=O)O)[C@@H](C)O)[C@@H](C)CC)CSSC[C@@H](C(=O)N[C@@H](CCCCN)C(=O)N[C@H](C(=O)O)[C@@H](C)O)NC(=O)[C@@H]2CSSC[C@@H]3NC(=O)[C@@H]4CSSC[C@H](NC(=O)[C@H](Cc5ccccc5)NC1=O)C(=O)N[C@@H](CSSC[C@H](NC(=O)[C@H](CCCCN)NC(=O)[C@H](CO)NC(=O)[C@H](CCCNC(=N)N)NC(=O)[C@H](Cc1c[nH]cn1)NC3=O)C(=O)NCC(=O)N[C@@H](CCSC)C(=O)N2)C(=O)NCC(=O)N4", "note": "[hepcidin, reference compound]", "values": [
      {"measurement": "Fpn Degradation (120 min.)", "setting": "[1]", "result": "+"},
      {"measurement": "Fpn Ubiquitination (10 min.)", "setting": "[1]", "result": "+"}
    ]}
  ]
}
